Data on seven compounds can be found in PubChem BioAssay (NCI).

Test systems include 786-0 renal; A498 renal; BT-549 breast; DU-145 prostate; EKVX NSCLC; K-562 leukemia; NCI/ADR-RES ovarian; OVCAR-4 ovarian; TK-10 renal; UACC-62 melanoma.
Holding throughout (test): DTP human tumour cell line panel, 48 h

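Test compounds were applied to cells in 96-well plates for 48 hours at 5 doses. GI50 = concentration required for 50% inhibition of growth. The concentration for full growth arrest is given as TGI.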

`O=C(c1ccc2ccccc2c1)c1c(C(F)(F)F)n([O-])c2ccc(Cl)cc2[n+]1=O`: the GI50 (as a rule, the concentration that inhibits growth by half) with 786-0 renal was 1.64 µM; with A498 renal, 1.72 µM; with BT-549 breast it was 1.6 µM; in the test on DU-145 prostate, 1.47 µM; with EKVX NSCLC, 1.74 µM; with K-562 leukemia it was 1.22 µM. Besides, the GI50 with NCI/ADR-RES ovarian is 1.89 µM; with OVCAR-4 ovarian, 1.39 µM; in the test with TK-10 renal, 1.81 µM; in the test with UACC-62 melanoma, 1.71 µM. In addition, the concentration for total growth inhibition (TGI) (as a rule, the concentration giving total growth inhibition) with 786-0 renal was 3.09 µM; in the test on A498 renal it was 3.11 µM; in the test on BT-549 breast it was 2.99 µM; in the test on DU-145 prostate, 2.79 µM; in the test with EKVX NSCLC it was 3.17 µM; with K-562 leukemia, 2.65 µM. Further, the TGI in the test with NCI/ADR-RES ovarian was determined as 3.86 µM; in the test with OVCAR-4 ovarian, 2.72 µM; with TK-10 renal, 3.35 µM; with UACC-62 melanoma, 3.08 µM.
Consider `NC(=O)C1(N2CCCCC2)CCN(CCCC(=O)c2ccc(F)cc2)CC1`, for which the GI50 is 4.59 µM with 786-0 renal; 2.72 µM with A498 renal; 0.0443 µM in the test on BT-549 breast; 2.83 µM in the test on DU-145 prostate; 6.01 µM with EKVX NSCLC; 0.28 µM in the test with K-562 leukemia. For the same compound, the GI50 in the test with NCI/ADR-RES ovarian was 29 µM; with OVCAR-4 ovarian, 8.72 µM; in the test on TK-10 renal it was more than 26 µM; in the test on UACC-62 melanoma, 0.219 µM. Also, the TGI in the test with 786-0 renal was 43.2 µM; with A498 renal, 11.4 µM; in the test on BT-549 breast, 14.1 µM; in the test with DU-145 prostate, more than 25.6 µM; in the test on EKVX NSCLC it was more than 100 µM; in the test with K-562 leukemia it was more than 100 µM. Further, the TGI with NCI/ADR-RES ovarian, in the test with OVCAR-4 ovarian, with TK-10 renal and with UACC-62 melanoma was more than 100 µM in each case.
Turning to `OC(CN1CC1)C(O)CN1CC1` (stereo not given), the GI50 in the test on 786-0 renal, with A498 renal, in the test on BT-549 breast, in the test on DU-145 prostate, with EKVX NSCLC and with K-562 leukemia was more than 50 µg/mL in each case. Moreover, the GI50 in the test with NCI/ADR-RES ovarian, in the test on OVCAR-4 ovarian, in the test on TK-10 renal and in the test with UACC-62 melanoma was more than 50 µg/mL in each case. The TGI with 786-0 renal, with A498 renal, with BT-549 breast, in the test with DU-145 prostate, in the test with EKVX NSCLC and in the test on K-562 leukemia was more than 50 µg/mL in each case. The TGI in the test on NCI/ADR-RES ovarian, in the test on OVCAR-4 ovarian, with TK-10 renal and in the test on UACC-62 melanoma was more than 50 µg/mL each time.
In the case of `CCSc1nc(N)c2cn[nH]c2n1`, the GI50 with 786-0 renal was 40.2 µM; in the test on A498 renal, 20.7 µM; in the test on BT-549 breast, 52.1 µM; in the test on DU-145 prostate, 46.2 µM; in the test on EKVX NSCLC, 51.4 µM; in the test on K-562 leukemia it was 37.3 µM. Also, the GI50 in the test with NCI/ADR-RES ovarian is 28.4 µM; in the test on OVCAR-4 ovarian, 32.7 µM; in the test with TK-10 renal it was 7.54 µM; in the test on UACC-62 melanoma, 18 µM. Moreover, the TGI was more than 100 µM with 786-0 renal; 50.2 µM in the test on A498 renal; more than 100 µM in the test with BT-549 breast; more than 100 µM with DU-145 prostate; more than 100 µM with EKVX NSCLC; more than 100 µM in the test with K-562 leukemia. Moreover, the TGI in the test on NCI/ADR-RES ovarian was determined as 85.6 µM; in the test with OVCAR-4 ovarian, 89 µM; with TK-10 renal, 34.3 µM; with UACC-62 melanoma, 38.9 µM.
Consider `NC(=O)c1cccc(Nc2nccc(Nc3cccc(F)c3)n2)c1`, for which the GI50 in the test with 786-0 renal was 9.15 µM; with A498 renal, 4.3 µM; in the test with BT-549 breast it was 10.3 µM; with DU-145 prostate, 8.1 µM; with EKVX NSCLC, 12.3 µM; with K-562 leukemia it was 8.13 µM. Also, the GI50 with NCI/ADR-RES ovarian was 8.75 µM; in the test on OVCAR-4 ovarian, 4.37 µM; in the test with TK-10 renal it was 6.51 µM; in the test with UACC-62 melanoma, 5.66 µM. Also, the total growth inhibition concentration (TGI) in the test on 786-0 renal is more than 25 µM; with A498 renal it was 16 µM; in the test on BT-549 breast, more than 25 µM; in the test with DU-145 prostate, more than 25 µM; in the test on EKVX NSCLC, more than 25 µM; in the test with K-562 leukemia, more than 25 µM. Besides, the TGI in the test on NCI/ADR-RES ovarian was more than 25 µM; with OVCAR-4 ovarian, more than 25 µM; with TK-10 renal it was more than 23.7 µM; in the test with UACC-62 melanoma, 24.6 µM.
As for `CCN(CC)CCNC(=O)c1cn2ncnc(Oc3ccc(NC(=O)Nc4ccc(Cl)c(C(F)(F)F)c4)c(F)c3)c2c1C`, the GI50 is 1.95 µM with 786-0 renal; 1.84 µM in the test with A498 renal; 1.86 µM with BT-549 breast; 1.72 µM in the test with DU-145 prostate; 1.92 µM with EKVX NSCLC; 0.442 µM with K-562 leukemia. Also, the GI50 was 1.95 µM in the test with NCI/ADR-RES ovarian, 1.74 µM in the test on OVCAR-4 ovarian, 2.38 µM in the test with TK-10 renal and 1.68 µM with UACC-62 melanoma. Besides, the TGI with 786-0 renal came out at 3.69 µM; in the test with A498 renal, 3.28 µM; with BT-549 breast it was 3.48 µM; with DU-145 prostate it was 3.12 µM; in the test with EKVX NSCLC it was 3.34 µM; in the test with K-562 leukemia it was 2.28 µM. The TGI is 3.82 µM in the test on NCI/ADR-RES ovarian, 3.36 µM in the test with OVCAR-4 ovarian, 4.04 µM in the test with TK-10 renal and 3.15 µM in the test with UACC-62 melanoma.
Take `O=c1c2c3c(sc2n2c(-c4cc(-c5ccccc5)nn4-c4ccccc4)nnc2n1Cc1ccccc1)CCCC3`: the GI50 in the test with 786-0 renal, with A498 renal, in the test on BT-549 breast, with DU-145 prostate, in the test on EKVX NSCLC and with K-562 leukemia was more than 100 µM in each case. The GI50 with NCI/ADR-RES ovarian, in the test with OVCAR-4 ovarian, in the test with TK-10 renal and with UACC-62 melanoma was more than 100 µM throughout. The total growth inhibition concentration (TGI) with 786-0 renal, with A498 renal, in the test with BT-549 breast, with DU-145 prostate, in the test on EKVX NSCLC and in the test with K-562 leukemia was more than 100 µM throughout. Also, the TGI in the test on NCI/ADR-RES ovarian, with OVCAR-4 ovarian, with TK-10 renal and with UACC-62 melanoma was more than 100 µM in each case.
